The source of these data is patent publication US20130150377A1, “Tetrahydropyridinyl and Dihydropyrrolyl Compounds and the Use Thereof” (SHIONOGI & CO., LTD., priority 2008, published 2013).

Structures can show the parent of a compound that is named as a salt. Where only a bound is given, the exact number is not on record here.

The target in the assay is T1, N-type calcium channel (NTCC) (Homo sapiens, UniProt Q00975).
T1 construct: endogenous in cells; host or cells: differentiated IMR32 cells (ATCC)
T1 sequence (Q00975 whole entry): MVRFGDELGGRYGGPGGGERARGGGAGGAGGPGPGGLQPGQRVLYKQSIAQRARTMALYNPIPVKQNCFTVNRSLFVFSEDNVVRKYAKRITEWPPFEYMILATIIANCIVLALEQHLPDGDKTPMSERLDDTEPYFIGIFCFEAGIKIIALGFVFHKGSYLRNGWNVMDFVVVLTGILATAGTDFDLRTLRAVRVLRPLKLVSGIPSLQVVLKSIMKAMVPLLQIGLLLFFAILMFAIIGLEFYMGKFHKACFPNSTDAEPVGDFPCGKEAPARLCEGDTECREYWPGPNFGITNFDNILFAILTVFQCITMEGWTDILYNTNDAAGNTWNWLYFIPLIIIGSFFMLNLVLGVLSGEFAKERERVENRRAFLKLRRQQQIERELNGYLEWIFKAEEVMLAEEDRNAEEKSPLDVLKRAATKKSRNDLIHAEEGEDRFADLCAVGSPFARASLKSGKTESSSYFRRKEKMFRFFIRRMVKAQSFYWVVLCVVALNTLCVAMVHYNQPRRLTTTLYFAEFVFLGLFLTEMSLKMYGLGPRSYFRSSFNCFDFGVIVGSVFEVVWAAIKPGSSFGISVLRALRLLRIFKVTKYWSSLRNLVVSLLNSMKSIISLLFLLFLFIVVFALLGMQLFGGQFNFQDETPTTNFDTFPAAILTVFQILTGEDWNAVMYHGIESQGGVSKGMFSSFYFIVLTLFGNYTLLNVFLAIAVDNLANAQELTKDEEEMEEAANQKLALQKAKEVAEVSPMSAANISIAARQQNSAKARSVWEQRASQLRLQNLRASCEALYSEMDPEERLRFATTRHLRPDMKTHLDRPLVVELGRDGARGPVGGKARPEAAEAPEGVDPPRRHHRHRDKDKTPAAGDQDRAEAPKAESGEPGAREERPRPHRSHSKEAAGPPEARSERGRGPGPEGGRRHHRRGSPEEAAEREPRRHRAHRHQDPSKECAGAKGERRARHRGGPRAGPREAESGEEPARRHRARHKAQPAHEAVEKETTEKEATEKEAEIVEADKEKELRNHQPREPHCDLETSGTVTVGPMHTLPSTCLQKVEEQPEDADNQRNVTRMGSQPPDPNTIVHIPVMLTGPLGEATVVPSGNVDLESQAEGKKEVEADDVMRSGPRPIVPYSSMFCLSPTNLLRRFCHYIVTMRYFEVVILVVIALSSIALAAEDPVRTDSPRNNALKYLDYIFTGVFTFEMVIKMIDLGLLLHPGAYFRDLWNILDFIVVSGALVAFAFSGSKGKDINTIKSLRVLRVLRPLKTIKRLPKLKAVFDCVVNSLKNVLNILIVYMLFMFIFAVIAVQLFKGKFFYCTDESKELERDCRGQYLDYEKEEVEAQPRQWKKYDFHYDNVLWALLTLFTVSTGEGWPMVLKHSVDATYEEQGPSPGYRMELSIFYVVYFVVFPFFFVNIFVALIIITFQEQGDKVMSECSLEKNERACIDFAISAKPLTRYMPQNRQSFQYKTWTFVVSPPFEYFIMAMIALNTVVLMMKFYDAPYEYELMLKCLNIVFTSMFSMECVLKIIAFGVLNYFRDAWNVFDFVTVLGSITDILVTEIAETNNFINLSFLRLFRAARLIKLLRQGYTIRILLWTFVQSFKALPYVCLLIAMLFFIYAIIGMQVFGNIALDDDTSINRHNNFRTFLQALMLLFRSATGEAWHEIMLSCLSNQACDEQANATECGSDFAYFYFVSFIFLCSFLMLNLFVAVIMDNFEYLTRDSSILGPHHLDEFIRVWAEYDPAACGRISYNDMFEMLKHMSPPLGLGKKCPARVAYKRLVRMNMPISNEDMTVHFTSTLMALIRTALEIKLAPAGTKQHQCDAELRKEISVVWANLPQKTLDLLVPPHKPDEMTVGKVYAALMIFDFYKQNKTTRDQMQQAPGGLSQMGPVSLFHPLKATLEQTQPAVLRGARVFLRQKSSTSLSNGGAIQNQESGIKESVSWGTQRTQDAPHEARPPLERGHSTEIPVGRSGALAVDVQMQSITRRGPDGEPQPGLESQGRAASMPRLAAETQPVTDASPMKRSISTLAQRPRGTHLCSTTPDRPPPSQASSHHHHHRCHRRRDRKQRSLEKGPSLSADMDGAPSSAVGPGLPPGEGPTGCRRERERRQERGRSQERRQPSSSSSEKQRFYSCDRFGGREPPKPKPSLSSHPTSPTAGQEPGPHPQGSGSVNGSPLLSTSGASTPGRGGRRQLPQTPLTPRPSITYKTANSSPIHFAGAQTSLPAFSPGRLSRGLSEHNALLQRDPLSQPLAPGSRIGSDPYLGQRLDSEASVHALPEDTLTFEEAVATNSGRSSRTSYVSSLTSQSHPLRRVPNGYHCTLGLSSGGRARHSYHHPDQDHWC
T1 sequence (P54289 25-956 partner limits assumed): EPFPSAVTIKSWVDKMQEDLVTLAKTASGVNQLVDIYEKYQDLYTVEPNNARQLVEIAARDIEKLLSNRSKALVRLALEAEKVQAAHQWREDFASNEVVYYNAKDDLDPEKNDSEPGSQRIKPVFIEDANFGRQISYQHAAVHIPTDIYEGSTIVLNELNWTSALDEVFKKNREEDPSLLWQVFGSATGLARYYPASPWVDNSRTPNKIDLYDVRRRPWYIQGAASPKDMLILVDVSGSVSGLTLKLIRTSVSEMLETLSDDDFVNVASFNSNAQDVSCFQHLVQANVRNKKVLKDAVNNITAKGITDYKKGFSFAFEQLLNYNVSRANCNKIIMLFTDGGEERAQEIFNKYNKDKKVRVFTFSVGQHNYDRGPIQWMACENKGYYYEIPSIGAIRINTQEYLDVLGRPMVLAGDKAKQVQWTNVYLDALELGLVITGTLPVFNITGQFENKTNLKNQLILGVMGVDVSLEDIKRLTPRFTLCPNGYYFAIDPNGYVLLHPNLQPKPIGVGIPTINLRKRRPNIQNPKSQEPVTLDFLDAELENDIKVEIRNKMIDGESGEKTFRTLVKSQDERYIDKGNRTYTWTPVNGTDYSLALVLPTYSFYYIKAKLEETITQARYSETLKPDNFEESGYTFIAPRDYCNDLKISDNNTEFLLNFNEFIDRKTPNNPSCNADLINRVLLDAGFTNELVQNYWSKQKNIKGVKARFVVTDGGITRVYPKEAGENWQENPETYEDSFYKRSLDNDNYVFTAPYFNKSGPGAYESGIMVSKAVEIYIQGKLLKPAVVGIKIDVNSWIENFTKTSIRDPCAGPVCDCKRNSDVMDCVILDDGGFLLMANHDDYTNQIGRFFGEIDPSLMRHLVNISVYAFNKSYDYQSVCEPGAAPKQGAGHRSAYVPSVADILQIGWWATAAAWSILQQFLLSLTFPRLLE
T1 sequence (P54289 957-1103 partner limits assumed): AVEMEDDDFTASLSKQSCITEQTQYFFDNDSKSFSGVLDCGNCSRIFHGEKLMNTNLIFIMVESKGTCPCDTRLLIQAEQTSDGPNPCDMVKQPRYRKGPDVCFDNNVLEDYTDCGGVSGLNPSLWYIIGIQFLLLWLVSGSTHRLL
T1 sequence (P54284 whole entry partner): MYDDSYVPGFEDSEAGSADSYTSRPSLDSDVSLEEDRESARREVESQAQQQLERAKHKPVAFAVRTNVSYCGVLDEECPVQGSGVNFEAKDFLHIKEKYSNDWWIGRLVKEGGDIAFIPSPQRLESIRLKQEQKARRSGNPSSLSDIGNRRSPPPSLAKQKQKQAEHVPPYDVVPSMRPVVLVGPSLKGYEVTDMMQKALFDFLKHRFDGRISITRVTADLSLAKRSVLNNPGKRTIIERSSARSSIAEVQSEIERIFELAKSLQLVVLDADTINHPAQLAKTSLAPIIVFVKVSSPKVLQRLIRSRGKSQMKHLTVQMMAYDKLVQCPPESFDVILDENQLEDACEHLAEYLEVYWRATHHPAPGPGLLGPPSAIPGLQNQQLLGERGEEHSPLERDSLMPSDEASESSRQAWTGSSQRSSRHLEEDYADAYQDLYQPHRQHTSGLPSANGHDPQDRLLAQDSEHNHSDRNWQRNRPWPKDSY
The experiment in a line: FLIPR calcium mobilization assay for N-type calcium channel (differentiated IMR32 cells). It is filed as cell-based. The note with it: N-type calcium channel blockers, calcium mobilization in vitro assay. As to the method: Cell maintenance and differentiation. Unless noted otherwise, cell culture reagents were purchased from Mediatech of Herndon, Md. IMR32 cells (American Type Culture Collection, ATCC, Manassas, Va.) were routinely cultured in growth medium consisting of minimum essential medium containing 10% fetal bovine serum (FBS, Hyclone, Logan, Utah), 100 U/mL penicillin, 100 μg/mL streptomycin, 2 mM L-glutamine, 1 mM sodium pyruvate, and 1×MEM non-essential amino acids. 80-90% confluent flasks of cells were differentiated using the following differentiation medium: Growth medium plus 1 mM dibutyryl cyclic AMP (Sigma, St. Louis, Mo.), and 2.5 μM bromodeoxyuridine (Sigma). Cells were differentiated for 8 days by replacing differentiation medium every 2-3 days.
FLIPR Calcium Mobilization Assay for N-type Calcium Channel.
One day prior to performing this assay, differentiated IMR32 cells were treated with 1× CellStripper, and seeded on poly-D-lysine-coated 96-well clear-bottom black plates (Becton Dickinson, Franklin Lakes, N.J.) at 200,000 cells/well. On the day of the assay, the cell plates were washed with IMR32 buffer (127 mM NaCl, 1 mM KCl, 2 mM MgCl2, 700 μM NaH2PO4, 5 mM CaCl2, 5 mM NaHCO3, 8 mM HEPES, 10 mM glucose, pH 7.4), then pre-stimulated with KCl and loaded as follows: […] of IMR32 buffer, 0.05 mL of each compound tested diluted in IMR32 buffer containing 20 μM nitrendipine (Sigma), and 0.1 mL KCl dissolved in IMR32 buffer, plus Fluo-4 were added (3 μM final concentration, Molecular Probes, Eugene, Oreg.). Final test compound concentrations ranged from about 846 pM to about 17 μM, final nitrendipine concentration was 5 μM, and final KCl concentration was 90 mM. After 1 hour, the cells were washed twice with 0.05 mL of each compound tested in nitrendipine-containing IMR32 buffer (no KCl or Fluo-4), and then replaced with 0.1 mL of each compound tested in nitrendipine-containing IMR32 buffer. Plates were then transferred to a Fluorimetric Imaging Plate Reader (FLIPR^96, Molecular Devices, Inc., Sunnyvale, Calif.) for assay. The FLIPR measured basal Fluo-4 fluorescence for 315 seconds (i.e., 5 minutes and 15 seconds), then added 0.1 mL KCl agonist dissolved in IMR32 buffer and measured fluorescence for another 45 seconds. Final test compound concentrations on the cells after FLIPR read ranged from about 846 pM to about 17 μM, final nitrendipine concentration was 5 μM, and final KCl concentration was 90 mM. Data were collected over the entire time course and analyzed using Excel, Graph Pad Prism (version 3.02, Graph Pad, San Diego, Calif.), or an in-house non-linear regression analysis software.
The IC50 is the midpoint of a concentration-inhibition curve. On to `O=C(NCC1CC1)c1ncccc1C1=CCN(S(=O)(=O)c2ccc(OC(F)(F)F)cc2)CC1` [1′-(4-Trifluoromethoxybenzenesulfonyl)-1′,2′,3′,6′-tetrahydro-[3,4′]bipyridinyl-2-carboxylic acid cyclopropylmethylamide], for which the IC50 came out at 0.69 µM.

In the case of `O=C(NC1CC1)c1cccc(C2=CCN(S(=O)(=O)c3ccc(C(F)(F)F)cc3)CC2)n1` [1′-(4-Trifluoromethylbenzenesulfonyl)-1′,2′,3′,6′-tetrahydro-[2,4′]bipyridinyl-6-carboxylic acid cyclopropylamide], the IC50 was 0.11 µM.

Take `O=C(NC1CC1)c1cccc(C2=CCN(S(=O)(=O)c3ccccn3)CC2)n1` [1′-(Pyridin-2-ylsulfonyl)-1′,2′,3′,6′-tetrahydro-[2,4′]bipyridinyl-6-carboxylic acid cyclopropylamide]: the IC50 was 9.92 µM.

Regarding `O=C(NC1CC1)c1cccc(C2=CCN(S(=O)(=O)c3cccnc3)CC2)n1` [1′-(Pyridin-3-ylsulfonyl)-1′,2′,3′,6′-tetrahydro-[2,4′]bipyridinyl-6-carboxylic acid cyclopropylamide], the IC50 came out at 6.18 µM.

`O=C(NC1CC1)c1cccc(C2=CCN(S(=O)(=O)c3ccsc3)CC2)n1` [1′-(Thiophen-3-ylsulfonyl)-1′,2′,3′,6′-tetrahydro-[2,4′]bipyridinyl-6-carboxylic acid cyclopropylamide]: the IC50 was 1.05 µM.

As to `O=C(NC1CC1)c1cccc(C2=CCN(S(=O)(=O)C3CCCCC3)CC2)n1` [1′-Cyclohexylsulfonyl-1′,2′,3′,6′-tetrahydro-[2,4′]bipyridinyl-6-carboxylic acid cyclopropylamide], the IC50 is 0.32 µM.

On to `O=C(NC1CC1)c1cccc(C2=CCN(S(=O)(=O)C3CCCC3)CC2)n1` [1′-Cyclopentylsulfonyl-1′,2′,3′,6′-tetrahydro-[2,4′]bipyridinyl-6-carboxylic acid cyclopropylamide], for which the IC50 is 2.7 µM.

As for `CN(C)S(=O)(=O)N1CC=C(c2cccc(C(=O)NC3CC3)n2)CC1` [1′-Dimethylsulfamoyl-1′,2′,3′,6′-tetrahydro-[2,4′]bipyridinyl-6-carboxylic acid cyclopropylamide], the IC50 was more than 20 µM.

For the compound `NC(=O)c1ccnc(C2=CCN(S(=O)(=O)c3cccc(C(F)(F)F)c3)CC2)n1` [2-[1-(3-Trifluoromethylbenzenesulfonyl)-1,2,3,6-tetrahydropyridin-4-yl]-pyrimidine-4-carboxylic acid amide], the IC50 came to 0.36 µM.

As for `O=C(NCC1CC1)c1ccnc(C2=CCN(S(=O)(=O)c3cccc(C(F)(F)F)c3)CC2)n1` [2-[1-(3-Trifluoromethylbenzenesulfonyl)-1,2,3,6-tetrahydropyridin-4-yl]pyrimidine-4-carboxylic acid cyclopropylmethylamide], the IC50 came to 0.13 µM.

For `O=C(NC1CC1)c1ccnc(C2=CCN(S(=O)(=O)c3ccc(OC(F)(F)F)cc3)CC2)n1` [2-[1-(4-Trifluoromethoxybenzenesulfonyl)-1,2,3,6-tetrahydropyridin-4-yl]pyrimidine-4-carboxylic acid cyclopropylamide], the IC50 was 0.24 µM.

For the compound `O=C(NC1CC1)c1nc(C2=CCN(S(=O)(=O)c3ccc(OC(F)(F)F)cc3)CC2)ccc1Cl` [5-Chloro-1′-(4-trifluoromethoxybenzenesulfonyl)-1′,2′,3′,6′-tetrahydro-[2,4′]bipyridinyl-6-carboxylic acid cyclopropylamide], the IC50 was determined as 0.49 µM.

With `O=C(NC1CC1)c1cccc(C2=CCN(S(=O)(=O)c3cccc(C(F)(F)F)c3)CC2)n1` [Compound 7, 1′-(3-Trifluoromethylbenzenesulfonyl)-1′,2′,3′,6′-tetrahydro-[2,4′]bipyridinyl-6-carboxylic acid cyclopropylamide], the half-maximal inhibitory concentration (IC50) is 0.03 µM.

For `NC(=O)c1ccnc(C2=CCN(S(=O)(=O)c3ccc(OC(F)(F)F)cc3)CC2)n1` [Compound 15, 2-[1-(4-Trifluoromethoxybenzenesulfonyl)-1,2,3,6-tetrahydropyridin-4-yl]-pyrimidine-4-carboxylic acid amide], the IC50 was more than 20 µM.

On to `COC(=O)c1cccc(C2=CCN(S(=O)(=O)c3cccc(C(F)(F)F)c3)CC2)n1` [Compound 25, 1′-(3-Trifluoromethylbenzenesulfonyl)-1′,2′,3′,6′-tetrahydro-[2,4′]bipyridinyl-6-carboxylic acid methyl ester], for which the IC50 was determined as 0.92 µM.

Turning to `O=C(O)c1cccc(C2=CCN(S(=O)(=O)c3cccc(C(F)(F)F)c3)CC2)n1` [Compound 26, 1′-(3-Trifluoromethylbenzenesulfonyl)-1′,2′,3′,6′-tetrahydro-[2,4′]bipyridinyl-6-carboxylic acid], the IC50 was more than 20 µM.

On to `O=C(NCC1CC1)c1cccc(C2=CCN(S(=O)(=O)c3cccc(C(F)(F)F)c3)CC2)n1` [Compound 27, 1′-(3-Trifluoromethylbenzenesulfonyl)-1′,2′,3′,6′-tetrahydro-[2,4′]bipyridinyl-6-carboxylic acid cyclopropylmethylamide], for which the IC50 was 0.01 µM.

Turning to `NC(=O)c1cccc(C2=CCN(S(=O)(=O)c3cccc(C(F)(F)F)c3)CC2)n1` [Compound 28, 1′-(3-Trifluoromethylbenzenesulfonyl)-1′,2′,3′,6′-tetrahydro-[2,4′]bipyridinyl-6-carboxylic acid amide], the IC50 came to 0.59 µM.

`N#Cc1cccc(C2=CCN(S(=O)(=O)c3cccc(C(F)(F)F)c3)CC2)n1` [Compound 32, 1′-(3-Trifluoromethylbenzenesulfonyl)-1′,2′,3′,6′-tetrahydro-[2,4′]bipyridinyl-6-carbonitrile]: the IC50 was 1.6 µM.

As for `N=C(NCC1CC1)c1cccc(C2=CCN(S(=O)(=O)c3ccc(OC(F)(F)F)cc3)CC2)n1` [Compound 34, N-Cyclopropylmethyl-1′-(4-trifluoromethoxybenzenesulfonyl)-1′,2′,3′,6′-tetrahydro-[2,4′]bipyridinyl-6-carboxamidine], the IC50 was found to be 0.32 µM.

As for `O=C(NC1CC1)c1ccnc(C2=CCN(S(=O)(=O)c3cccc(C(F)(F)F)c3)CC2)n1` [Compound 39, 2-[1-(3-Trifluoromethylbenzenesulfonyl)-1,2,3,6-tetrahydropyridin-4-yl]pyrimidine-4-carboxylic acid cyclopropylamide], the IC50 was 0.06 µM.

On to `O=C(NC1CC1)c1nc(C2=CCN(S(=O)(=O)c3cccc(C(F)(F)F)c3)CC2)ccc1Cl` [Compound 44, 5-Chloro-1′-(3-trifluoromethylbenzenesulfonyl)-1′,2′,3′,6′-tetrahydro-[2,4′]bipyridinyl-6-carboxylic acid cyclopropylamide], for which the IC50 was 0.06 µM.

Take `O=C(NC1CC1)c1cccc(C2=CC3CCC(C2)N3S(=O)(=O)c2cccc(C(F)(F)F)c2)n1` (stereo not drawn) [Compound 55, 6-[8-(3-Trifluoromethylbenzenesulfonyl)-8-aza-bicyclo[3.2.1]oct-2-en-3-yl]pyridine-2-carboxylic acid cyclopropylamide]: the IC50 was 0.05 µM.

Consider `O=C(NC1CC1)c1coc(C2=CCN(S(=O)(=O)c3ccc(OC(F)(F)F)cc3)CC2)n1` [Compound 61, 2-[1-(4-Trifluoromethoxybenzenesulfonyl)-1,2,3,6-tetrahydropyridin-4-yl]oxazole-4-carboxylic acid cyclopropylamide], for which the IC50 was 0.32 µM.

Regarding `O=C(NC1CC1)c1cccc(C2=CCN(C(c3ccc(OC(F)(F)F)cc3)C(F)(F)F)CC2)n1` (stereo not drawn) [Compound 64, 1′-[2,2,2-Trifluoro-1-(4-trifluoromethoxyphenyl)ethyl]-1′,2′,3′,6′-tetrahydro-[2,4′]bipyridinyl-6-carboxylic acid cyclopropylamide], the IC50 is 0.32 µM.

Take `O=C(NC1CC1)c1cccc(C2=CCN(C(CO)c3ccc(OC(F)(F)F)cc3)CC2)n1` (stereo not drawn) [Compound 67, 1′-[2-Hydroxy-1-(4-trifluoromethoxyphenyl)ethyl]-1′,2′,3′,6-tetrahydro-[2,4′]bipyridinyl-6-carboxylic acid cyclopropylamide]: the IC50 was found to be 1.34 µM.

As to `O=C(NC1CC1)c1cccc(C2=CCN(Cc3cc(C(F)(F)F)no3)CC2)n1` [Compound 76, N-Cyclopropyl-6-{1-[(3-trifluoromethylisoxazol-5-yl)methyl]-1,2,3,6-tetrahydropyridin-4-yl}picolinamide hydrochloride], the IC50 amounted to 2.76 µM.
